Results on 2 compounds are retold here after patent US11168106B1, “Synthesis and stabilization of nicotinamide ribose and its derivatives” (priority 2017, dated 2021).

Molecules are shown by their SMILES.

Data set [1] in a line: Decomposition of nicotinamide ribose in water with and without borate, HPTLC read at 254 nm. Conditions: for Area [%] of assigned substance, decomposition of nicotinamide ribose with borate: boric acid added in 1:1 molar ratio, in water; for Area [%] of assigned substance, decomposition of nicotinamide ribose with borate / Area [%] of assigned substance, decomposition of nicotinamide ribose without borate: water bath 65° C., 8 h, HPTLC at 254 nm; for Area [%] of assigned substance, decomposition of nicotinamide ribose without borate: 1 mg/mL in water. The class given is physicochemical. The method, then: Nicotinamide riboside (NR) as its chloride salt was used at 100 mM. Boric acid: was used at 300 mM. All samples were prepared in water. This, 1 mg/mL of nicotinamide riboside of capsule content was weighed in a 25 mL volumetric flask. Water was added to 25 mL total volume. For the reaction in the presence of boric acid, the same was done with boric acid added in a 1:1 molar ratio. In either case, 5 mL of each solution prepared was placed in the water bath at 65° C. A control was incubated at room temperature. After incubation for 8 h, 2 μL of each solution (heated and not heated) are placed on the HPTLC plate. The plate is eluted in the following mobile phase: ethanol, ammonium acetate 1 M (7:3). The plate is read at 254 nm to obtain the respective peaks.

The test system of the next data set is NAD. Conditions: healthy middle-aged and older adults, cited from earlier work.

With `NC(=O)c1ccc[n+]([C@@H]2O[C@H](CO)[C@@H](O)[C@H]2O)c1` [Nicotinamide riboside], in data set [1], the “Area [%] of assigned substance, decomposition of nicotinamide ribose with borate” value amounted to 86.08% and the “Area [%] of assigned substance, decomposition of nicotinamide ribose without borate” value is given as 70.1878%. The “Stabilization with respect to decomposition” value in data set [1] (boric acid vs no boric acid (FIG. 3 and FIG. 4)) is given as “stabilized by boric acid”. In the data set with NAD (chronic supplementation), the “Effect on NAD level” value is “elevates NAD”. Also, the “Tolerability of chronic supplementation” value with NAD is reported as “well-tolerated”.

As to `NC(=O)c1cccnc1` [Nicotinamide], in data set [1], the “Area [%] of assigned substance, decomposition of nicotinamide ribose with borate” value was determined as 13.92% and the “Area [%] of assigned substance, decomposition of nicotinamide ribose without borate” value is given as 29.8122%.
